Legend:
Assay type in all cases: cell-based
[1] = test system: normal cells and abnormal cells; experiment: Inverted slide-based nuclease digestion test with thiol reagent; conditions: thiol reagent added to the treatment solution
Description: Certain embodiments of the invention include a slide-based test. One example of a slide based test includes obtaining a test sample, (e.g., scraping cells off of their culture plates); suspending the sample in phosphate buffered saline (PBS); administering a drop of the cell suspension on a laminin coated slide. The sample administered to the coated slide is allowed to air dry (about 15 minutes). The dried slide is subjected to digestion with ALU (about 15 minutes). After digestion the slide is stained with ethidium bromide (1 minute) and imaged under fluorescence. Aside from being fast, this method is an improvement on standard “smear” methods (like Pap tests) in that it is insensitive to the air-drying artifacts that cause major problems with the standard methods and necessitate using preservatives and fixatives. An alternative sampling technique includes depositing cells by contacting the slide with a tissue block.
Thus, the result of the method is inverted. Inversion of the test can be produced by adding a thiol reagent such as DTT to the treatment solution.

[2] = test system: tumor cells grown on thin matrix; experiment: Labeling of nuclei of tumor cells grown on thin matrix by DNA-binding agents
Excerpt: Rather, they form clusters or sheets of cells with no evidence of the formation of perfusion channels. […] […] These and other similar experiments reveal that polar agents such as bisbenzimide and doxorubicin are systematically excluded from the cells comprising tumor nests while these cells are accessible to neutral molecules of similar molecular weights.

[3] = test system: invasive tumor cells forming tumor nests; experiment: Labeling of nuclei of invasive tumor cells in tumor nests on thick matrix by DNA-binding agents; conditions: even after prolonged exposure
Excerpt: Rather, they form clusters or sheets of cells with no evidence of the formation of perfusion channels. […] Invasive tumor cells grown in vitro on thick matrix and stained by the addition of bisbenzimide to the culture medium show staining restricted to the nuclei of the cells on the peripheries of the individual cell clusters forming the tumor nest. These and other similar experiments reveal that polar agents such as bisbenzimide and doxorubicin are systematically excluded from the cells comprising tumor nests while these cells are accessible to neutral molecules of similar molecular weights.

tumor nest = experiment: Perfusion of tumor nests by neutral fluorescent dyes and dextran conjugates; conditions: microinjected into a sinusoid of a tumor nest; fluorescence microscopy
Excerpt: Invasive tumor cells grown on thick layers of extracellular matrix protein form tumor nests in vitro and can be used as model systems for the evaluation of the efficacy of anti-cancer drugs against similar structures in vivo. Fluorescence microscopy images of a fluorescent dye Texas Red microinjected into a sinusoid of a tumor nest will typically show the movement of the dye into the perfusion channels between clumps of tumor cells in the tumor nest. […] This same pattern of perfusion is evident when neutral fluorescent dyes are applied to tissues or layers of matrix proteins containing tumor nests rather than being injected into the nests.

[4] = test system: normal vasculogenic endothelial cells; experiment: Formation of vasculogenic cords by normal endothelial cells on matrix; conditions: normal endothelial cells on thin and thick matrix; agent added to the culture medium
Excerpt: With the specific exception of normal vasculogenic endothelial cells, normal cells and cancer cells of low invasive potential form clusters containing small numbers of cells when grown to less than confluent density on serum proteins absorbed to a solid support or on layers of extracellular matrix ranging from less than 50 microns to over 1000 microns in thickness. […] Normal vasculogenic […] cells grown to confluent density on absorbed serum proteins form characteristic “cobblestone” monolayers. These normal endothelial cells form distinctive cord-like structures when grown on thin matrix and networks of these cords when grown on thick matrix. The formation of these vasculogenic cords, which are known to be precursors to the formation of blood vessels, is prevented by the addition of anti-angiogenic agents such as the drug TNP-470 (a derivative of flimagillin) to the culture medium.

Compound	labeling of nuclei [2]	labeling of nuclei [3]	other results
O[C@@H](CS)[C@@H](O)CS [DTT]			effect on result of nuclease digestion test [1]: normal cells remain intact and the abnormal cells are degraded
COc1cccc2c1C(=O)c1c(O)c3c(c(O)c1C2=O)C[C@@](O)(C(=O)CO)C[C@@H]3O[C@H]1C[C@H](N)[C@H](O)[C@H](C)O1 [doxorubicin]	rapidly and efficiently labeled	only the nuclei of cells on the peripheries of the tumor cell clusters forming the nests are labeled	
Texas Red			movement of dye into perfusion channels of tumor nest (tumor nest): the tumor nest is permeated by the dye
CO[C@@H]1[C@H](OC(=O)NC(=O)CCl)CC[C@]2(CO2)[C@H]1[C@@]1(C)O[C@@H]1CC=C(C)C [TNP-470]			formation of vasculogenic cords [4]: prevented
CN1CCN(c2ccc3[nH]c(-c4ccc5[nH]c(-c6ccc(O)cc6)nc5c4)nc3c2)CC1 [bisbenzimide]	rapidly and efficiently labeled	only the nuclei of cells on the peripheries of the tumor cell clusters forming the nests are labeled	
